Values quoted from earlier work, collected in PMC11822664, “First‐In‐Human Dose Finding Study of Venadaparib (IDX‐1197), a Potent and Selective PARP Inhibitor, in Patients With Advanced Solid Tumors” (Cancer Medicine, 2025).

Columns and labels:
[1] = tested on: PARP; conditions: olaparib phase I trial ref 22; cited from earlier work
[2] = tested on: patients with advanced ovarian cancer; conditions: cited from earlier work
[3] = advanced ovarian cancer with ≥ 2 prior systemic treatments ref 33

SMILES: O=C(c1cc(Cc2n[nH]c(=O)c3ccccc23)ccc1F)N1CCN(C(=O)C2CC2)CC1 [olaparib]
- Dose from which clinical benefit started [1]: ≥ 100 mg twice daily (BID)
- Anemia incidence ([2]; advanced ovarian cancer ref 33): 46%
- Neutropenia incidence ([2]; advanced ovarian cancer ref 33): 24%
- Nausea incidence [2, 3]: approximately 76%
- Vomiting incidence [2, 3]: ~40%
